Reference: BigSolDB 2.1

CCS(=O)(=O)CCn1c([N+](=O)[O-])cnc1C
solubility (mole fraction) (in 2-butoxyethanol, 278.15 K): 0.00191 | solubility (mole fraction) (in 2-butoxyethanol, 283.15 K): 0.00214 | solubility (mole fraction) (in 2-butoxyethanol, 288.15 K): 0.00276 | solubility (mole fraction) (in 2-butoxyethanol, 293.15 K): 0.00372 | solubility (mole fraction) (in 2-butoxyethanol, 298.15 K): 0.00446 | solubility (mole fraction) (in 2-butoxyethanol, 303.15 K): 0.0054 | solubility (mole fraction) (in 2-butoxyethanol, 308.15 K): 0.00687 | solubility (mole fraction) (in 2-butoxyethanol, 313.15 K): 0.00826 | solubility (mole fraction) (in 2-butoxyethanol, 318.15 K): 0.0106 | solubility (mole fraction) (in 2-butoxyethanol, 323.15 K): 0.0133 | solubility (mole fraction) (in 2-ethoxyethanol, 278.15 K): 0.00356 | solubility (mole fraction) (in 2-ethoxyethanol, 283.15 K): 0.00437 | solubility (mole fraction) (in 2-ethoxyethanol, 288.15 K): 0.00526 | solubility (mole fraction) (in 2-ethoxyethanol, 293.15 K): 0.00647 | solubility (mole fraction) (in 2-ethoxyethanol, 298.15 K): 0.00792 | solubility (mole fraction) (in 2-ethoxyethanol, 303.15 K): 0.00957 | solubility (mole fraction) (in 2-ethoxyethanol, 308.15 K): 0.012 | solubility (mole fraction) (in 2-ethoxyethanol, 313.15 K): 0.0147 | solubility (mole fraction) (in 2-ethoxyethanol, 318.15 K): 0.0181 | solubility (mole fraction) (in 2-ethoxyethanol, 323.15 K): 0.0222 | solubility (mole fraction) (in 2-methoxyethanol, 278.15 K): 0.00839 | solubility (mole fraction) (in 2-methoxyethanol, 283.15 K): 0.0102 | solubility (mole fraction) (in 2-methoxyethanol, 288.15 K): 0.0118 | solubility (mole fraction) (in 2-methoxyethanol, 293.15 K): 0.0145 | solubility (mole fraction) (in 2-methoxyethanol, 298.15 K): 0.0175 | solubility (mole fraction) (in 2-methoxyethanol, 303.15 K): 0.0209 | solubility (mole fraction) (in 2-methoxyethanol, 308.15 K): 0.0257 | solubility (mole fraction) (in 2-methoxyethanol, 313.15 K): 0.0314 | solubility (mole fraction) (in 2-methoxyethanol, 318.15 K): 0.0377 | solubility (mole fraction) (in 2-methoxyethanol, 323.15 K): 0.0462 | solubility (mole fraction) (in 2-propoxyethanol, 278.15 K): 0.0022 | solubility (mole fraction) (in 2-propoxyethanol, 283.15 K): 0.00261 | solubility (mole fraction) (in 2-propoxyethanol, 288.15 K): 0.00329 | solubility (mole fraction) (in 2-propoxyethanol, 293.15 K): 0.00429 | solubility (mole fraction) (in 2-propoxyethanol, 298.15 K): 0.00513 | solubility (mole fraction) (in 2-propoxyethanol, 303.15 K): 0.00622 | solubility (mole fraction) (in 2-propoxyethanol, 308.15 K): 0.00778 | solubility (mole fraction) (in 2-propoxyethanol, 313.15 K): 0.00967 | solubility (mole fraction) (in 2-propoxyethanol, 318.15 K): 0.0123 | solubility (mole fraction) (in 2-propoxyethanol, 323.15 K): 0.0154 | solubility (mole fraction) (in DMAc, 278.15 K): 0.0509 | solubility (mole fraction) (in DMAc, 283.15 K): 0.0571 | solubility (mole fraction) (in DMAc, 288.15 K): 0.0655 | solubility (mole fraction) (in DMAc, 293.15 K): 0.0745 | solubility (mole fraction) (in DMAc, 298.15 K): 0.083 | solubility (mole fraction) (in DMAc, 303.15 K): 0.0944 | solubility (mole fraction) (in DMAc, 308.15 K): 0.107 | solubility (mole fraction) (in DMAc, 313.15 K): 0.121 | solubility (mole fraction) (in DMAc, 318.15 K): 0.136 | solubility (mole fraction) (in DMAc, 323.15 K): 0.154 | solubility (mole fraction) (in DMF, 278.15 K): 0.0454 | solubility (mole fraction) (in DMF, 283.15 K): 0.0521 | solubility (mole fraction) (in DMF, 288.15 K): 0.06 | solubility (mole fraction) (in DMF, 293.15 K): 0.0691 | solubility (mole fraction) (in DMF, 298.15 K): 0.0787 | solubility (mole fraction) (in DMF, 303.15 K): 0.0905 | solubility (mole fraction) (in DMF, 308.15 K): 0.104 | solubility (mole fraction) (in DMF, 313.15 K): 0.119 | solubility (mole fraction) (in DMF, 318.15 K): 0.134 | solubility (mole fraction) (in DMF, 323.15 K): 0.152 | solubility (mole fraction) (in NMP, 278.15 K): 0.0704 | solubility (mole fraction) (in NMP, 283.15 K): 0.0804 | solubility (mole fraction) (in NMP, 288.15 K): 0.089 | solubility (mole fraction) (in NMP, 293.15 K): 0.0987 | solubility (mole fraction) (in NMP, 298.15 K): 0.109 | solubility (mole fraction) (in NMP, 303.15 K): 0.122 | solubility (mole fraction) (in NMP, 308.15 K): 0.137 | solubility (mole fraction) (in NMP, 313.15 K): 0.15 | solubility (mole fraction) (in NMP, 318.15 K): 0.167 | solubility (mole fraction) (in NMP, 323.15 K): 0.183 | solubility (mole fraction) (in acetone, 278.15 K): 0.00866 | solubility (mole fraction) (in acetone, 283.15 K): 0.011 | solubility (mole fraction) (in acetone, 288.15 K): 0.0133 | solubility (mole fraction) (in acetone, 293.15 K): 0.0161 | solubility (mole fraction) (in acetone, 298.15 K): 0.0195 | solubility (mole fraction) (in acetone, 303.15 K): 0.0233 | solubility (mole fraction) (in acetone, 308.15 K): 0.028 | solubility (mole fraction) (in acetone, 313.15 K): 0.0348 | solubility (mole fraction) (in acetone, 318.15 K): 0.0426 | solubility (mole fraction) (in acetone, 323.15 K): 0.0517 | solubility (mole fraction) (in ethanol, 278.15 K): 0.000263 | solubility (mole fraction) (in ethanol, 283.15 K): 0.000375 | solubility (mole fraction) (in ethanol, 288.15 K): 0.000479 | solubility (mole fraction) (in ethanol, 293.15 K): 0.000665 | solubility (mole fraction) (in ethanol, 298.15 K): 0.000836 | solubility (mole fraction) (in ethanol, 303.15 K): 0.0012 | solubility (mole fraction) (in ethanol, 308.15 K): 0.0016 | solubility (mole fraction) (in ethanol, 313.15 K): 0.00207 | solubility (mole fraction) (in ethanol, 318.15 K): 0.00277 | solubility (mole fraction) (in ethanol, 323.15 K): 0.00377 | solubility (mole fraction) (in ethyl acetate, 278.15 K): 0.00334 | solubility (mole fraction) (in ethyl acetate, 283.15 K): 0.00412 | solubility (mole fraction) (in ethyl acetate, 288.15 K): 0.00488 | solubility (mole fraction) (in ethyl acetate, 293.15 K): 0.0057 | solubility (mole fraction) (in ethyl acetate, 298.15 K): 0.00689 | solubility (mole fraction) (in ethyl acetate, 303.15 K): 0.00825 | solubility (mole fraction) (in ethyl acetate, 308.15 K): 0.0099 | solubility (mole fraction) (in ethyl acetate, 313.15 K): 0.0118 | solubility (mole fraction) (in ethyl acetate, 318.15 K): 0.0141 | solubility (mole fraction) (in ethyl acetate, 323.15 K): 0.0168 | solubility (mole fraction) (in methanol, 278.15 K): 0.000928 | solubility (mole fraction) (in methanol, 283.15 K): 0.00119 | solubility (mole fraction) (in methanol, 288.15 K): 0.00157 | solubility (mole fraction) (in methanol, 293.15 K): 0.00197 | solubility (mole fraction) (in methanol, 298.15 K): 0.00263 | solubility (mole fraction) (in methanol, 303.15 K): 0.00345 | solubility (mole fraction) (in methanol, 308.15 K): 0.00448 | solubility (mole fraction) (in methanol, 313.15 K): 0.00597 | solubility (mole fraction) (in methanol, 318.15 K): 0.00785 | solubility (mole fraction) (in methanol, 323.15 K): 0.0104 | solubility (mole fraction) (in methyl acetate, 278.15 K): 0.00557 | solubility (mole fraction) (in methyl acetate, 283.15 K): 0.00673 | solubility (mole fraction) (in methyl acetate, 288.15 K): 0.00791 | solubility (mole fraction) (in methyl acetate, 293.15 K): 0.0095 | solubility (mole fraction) (in methyl acetate, 298.15 K): 0.0114 | solubility (mole fraction) (in methyl acetate, 303.15 K): 0.0134 | solubility (mole fraction) (in methyl acetate, 308.15 K): 0.0159 | solubility (mole fraction) (in methyl acetate, 313.15 K): 0.0188 | solubility (mole fraction) (in methyl acetate, 318.15 K): 0.0223 | solubility (mole fraction) (in methyl acetate, 323.15 K): 0.0257 | solubility (mole fraction) (in n-butyl acetate, 278.15 K): 0.00199 | solubility (mole fraction) (in n-butyl acetate, 283.15 K): 0.00235 | solubility (mole fraction) (in n-butyl acetate, 288.15 K): 0.0029 | solubility (mole fraction) (in n-butyl acetate, 293.15 K): 0.00358 | solubility (mole fraction) (in n-butyl acetate, 298.15 K): 0.00421 | solubility (mole fraction) (in n-butyl acetate, 303.15 K): 0.00513 | solubility (mole fraction) (in n-butyl acetate, 308.15 K): 0.00617 | solubility (mole fraction) (in n-butyl acetate, 313.15 K): 0.0074 | solubility (mole fraction) (in n-butyl acetate, 318.15 K): 0.00898 | solubility (mole fraction) (in n-butyl acetate, 323.15 K): 0.0107 | solubility (mole fraction) (in n-propyl acetate, 278.15 K): 0.00255 | solubility (mole fraction) (in n-propyl acetate, 283.15 K): 0.00314 | solubility (mole fraction) (in n-propyl acetate, 288.15 K): 0.00377 | solubility (mole fraction) (in n-propyl acetate, 293.15 K): 0.00456 | solubility (mole fraction) (in n-propyl acetate, 298.15 K): 0.00543 | solubility (mole fraction) (in n-propyl acetate, 303.15 K): 0.00659 | solubility (mole fraction) (in n-propyl acetate, 308.15 K): 0.00783 | solubility (mole fraction) (in n-propyl acetate, 313.15 K): 0.00948 | solubility (mole fraction) (in n-propyl acetate, 318.15 K): 0.0114 | solubility (mole fraction) (in n-propyl acetate, 323.15 K): 0.0135
